Measurements reported in patent US20250304559A1, “Ether-Linked Antiviral Compounds” (Pfizer Inc., priority 2021, published 2025).
Like-named read-outs stand apart in the source and are kept apart here.

Key:
[1] = test system: SARS-CoV-2 (USA_WA1/2020); experiment: Antiviral Activity from SARS-CoV-2 Infection (cytopathic effect, Cell Titer-Glo); format: cell-based; settings: Severe acute respiratory syndrome coronavirus 2, Vero C1008, 72 h, tested alone or with P-gp inhibitor CP-100356 2 μM (table does not say which)
SARS-CoV-2 3CL protease = target: T1, SARS-CoV-2 3CL protease (Severe acute respiratory syndrome coronavirus 2, UniProt P0DTD1); experiment: SARS-CoV-2 Coronavirus 3C Protease FRET Assay; format: biochemical; settings: Morrison equation fit, 15 nM enzyme, 25 μM peptide substrate
T1 construct: measures the activity of full-length SARS-CoV-2 3CL protease

[2] = VeroE6 cells enriched for hACE2, MOI 0.002, 3-day incubation, read-out: Geometric Mean EC50
[3] = Examples 14-78 and 114 (second head of Table 2), read-out: Geometric Mean Ki (nM) IC50
[4] = Examples 1-13, 60 minutes at 23° C., read-out: Geometric Mean Ki

Row | Compound | EC50 [1, 2] | Ki (SARS-CoV-2 3CL protease; [3]) | Ki (SARS-CoV-2 3CL protease; [4]) | EC50 ([1]; read-out: Geometric Mean EC50 (nM), VeroE6 cells enriched for hACE2, MOI 0.002, 3-day incubation)
1 | CC(C)[C@H](NC(=O)C(F)(F)F)C(=O)N1C[C@H]2[C@@H]([C@H]1C(=O)N[C@@H](C[C@@H]1CCNC1=O)C(=O)COc1ccccc1)C2(C)C [Example 23, (1R,2S,5S)-6,6-dimethyl-N-{(2S)-3-oxo-1-[(3S)-2-oxopyrrolidin-3-yl]-4-phenoxybutan-2-yl}-3-[N-(trifluoroacetyl)-L-valyl]-3-azabicyclo[3.1.0]hexane-2-carboxamide] | 32 nM | 1.78 nM |  | 
2 | Cn1nc(C(F)(F)F)cc1OCC(=O)[C@H](C[C@@H]1CCNC1=O)NC(=O)[C@@H]1[C@@H]2[C@H](CN1C(=O)[C@@H](NC(=O)C(F)(F)F)C(C)(C)C)C2(C)C [Example 8, (1R,2S,5S)-6,6-dimethyl-3-[3-methyl-N-(trifluoroacetyl)-L-valyl]-N-{(2S)-4-{[1-methyl-3-(trifluoromethyl)-1H-pyrazol-5-yl]oxy}-3-oxo-1-[(3S)-2-oxopyrrolidin-3-yl]butan-2-yl}-3-azabicyclo[3.1.0]hexane-2-carboxamide] | 49.1 nM |  | 2.87 nM | 
3 | CC(C)[C@H](NC(=O)C(F)(F)F)C(=O)N1C[C@H]2[C@@H]([C@H]1C(=O)N[C@@H](C[C@@H]1CCNC1=O)C(=O)COc1cc(F)ccc1F)C2(C)C [Example 53, (1R,2S,5S)-N-{(2S)-4-(2,5-difluorophenoxy)-3-oxo-1-[(3S)-2-oxopyrrolidin-3-yl]butan-2-yl}-6,6-dimethyl-3-[N-(trifluoroacetyl)-L-valyl]-3-azabicyclo[3.1.0]hexane-2-carboxamide] | 72.8 nM | 12 nM |  | 
4 | Cn1nc(C(F)(F)F)cc1OCC(=O)[C@H](C[C@@H]1CCNC1=O)NC(=O)[C@@H]1[C@@H]2[C@H](CN1C(=O)[C@@H](NS(C)(=O)=O)C(C)(C)C)C2(C)C [Example 7, (1R,2S,5S)-6,6-dimethyl-3-[3-methyl-N-(methylsulfonyl)-L-valyl]-N-{(2S)-4-{[1-methyl-3-(trifluoromethyl)-1H-pyrazol-5-yl]oxy}-3-oxo-1-[(3S)-2-oxopyrrolidin-3-yl]butan-2-yl}-3-azabicyclo[3.1.0]hexane-2-carboxamide] | 1260 nM |  | 2.88 nM | 
5 | CCC([C@H](NC(=O)C(F)(F)F)C(=O)N1C[C@H]2[C@@H]([C@H]1C(=O)N[C@@H](C[C@@H]1CCNC1=O)C(=O)COc1ccc(F)cc1F)C2(C)C)C(F)(F)F (stereo in doubt) [Example 57, (1R,2S,5S)-N-{(2S)-4-(2,4-difluorophenoxy)-3-oxo-1-[(3S)-2-oxopyrrolidin-3-yl]butan-2-yl}-6,6-dimethyl-3-[3′,3′,3′-trifluoro-N-(trifluoroacetyl)-L-isoleucyl]-3-azabicyclo[3.1.0]hexane-2-carboxamide] | 275 nM | 17.3 nM |  | 
6 | CC(C)[C@H](NC(=O)C(F)(F)F)C(=O)N1C[C@H]2[C@@H]([C@H]1C(=O)N[C@@H](C[C@@H]1CCNC1=O)C(=O)COc1nc(C(F)(F)F)nn1C)C2(C)C [Example 55, (1R,2S,5S)-6,6-dimethyl-N-{(2S)-4-{[1-methyl-3-(trifluoromethyl)-1H-1,2,4-triazol-5-yl]oxy}-3-oxo-1-[(3S)-2-oxopyrrolidin-3-yl]butan-2-yl}-3-[N-(trifluoroacetyl)-L-valyl]-3-azabicyclo[3.1.0]hexane-2-carboxamide] | 642 nM | 11.6 nM |  | 
7 | COC(=O)N[C@H](C(=O)N1C[C@H]2[C@@H]([C@H]1C(=O)N[C@@H](C[C@@H]1CCNC1=O)C(=O)COc1cccc(C(F)(F)F)c1)C2(C)C)C(C)(C)C [Example 17, methyl {(2S)-1-[(1R,2S,5S)-6,6-dimethyl-2-({(2S)-3-oxo-1-[(3S)-2-oxopyrrolidin-3-yl]-4-[3-(trifluoromethyl)phenoxy]butan-2-yl}carbamoyl)-3-azabicyclo[3.1.0]hexan-3-yl]-3,3-dimethyl-1-oxobutan-2-yl}carbamate] | 13.3 nM | < 0.443 nM |  | 
8 | CCc1c(OCC(=O)[C@H](C[C@@H]2CCNC2=O)NC(=O)[C@@H]2[C@@H]3[C@H](CN2C(=O)[C@@H](NC(=O)C(F)(F)F)C(C)C)C3(C)C)noc1C [Example 67, (1R,2S,5S)-N-{(2S)-4-[(4-ethyl-5-methyl-1,2-oxazol-3-yl)oxy]-3-oxo-1-[(3S)-2-oxopyrrolidin-3-yl]butan-2-yl}-6,6-dimethyl-3-[N-(trifluoroacetyl)-L-valyl]-3-azabicyclo[3.1.0]hexane-2-carboxamide] | 1750 nM | 107 nM |  | 
9 | CC(C)(C)[C@H](NS(=O)(=O)C(F)(F)F)C(=O)N1C[C@H]2[C@@H]([C@H]1C(=O)N[C@@H](C[C@@H]1CCNC1=O)C(=O)COc1ccc(F)cc1)C2(C)C [Example 29, (1R,2S,5S)-N-{(2S)-4-(4-fluorophenoxy)-3-oxo-1-[(3S)-2-oxopyrrolidin-3-yl]butan-2-yl}-6,6-dimethyl-3-[3-methyl-N-(trifluoromethanesulfonyl)-L-valyl]-3-azabicyclo[3.1.0]hexane-2-carboxamide] |  | 4.69 nM |  | 57 nM
10 | CC(C)(C)[C@H](NS(=O)(=O)C(F)(F)F)C(=O)N1C[C@H]2[C@@H]([C@H]1C(=O)N[C@H](C[C@@H]1CCNC1=O)C(=O)COc1ccc(F)cc1F)C2(C)C [Example 68, (1R,2S,5S)-N-{(2R)-4-(2,4-difluorophenoxy)-3-oxo-1-[(3S)-2-oxopyrrolidin-3-yl]butan-2-yl}-6,6-dimethyl-3-[3-methyl-N-(trifluoromethanesulfonyl)-L-valyl]-3-azabicyclo[3.1.0]hexane-2-carboxamide] | 97 nM | 129 nM |  | 
11 | CC(C)(C)[C@H](NS(=O)(=O)C(F)(F)F)C(=O)N1C[C@H]2[C@@H]([C@H]1C(=O)N[C@@H](C[C@@H]1CCNC1=O)C(=O)COc1ccc(F)cc1F)C2(C)C [Example 3, (1R,2S,5S)-N-{(2S)-4-(2,4-difluorophenoxy)-3-oxo-1-[(3S)-2-oxopyrrolidin-3-yl]butan-2-yl}-6,6-dimethyl-3-{3-methyl-N-[(trifluoromethyl)sulfonyl]-L-valyl}-3-azabicyclo[3.1.0]hexane-2-carboxamide] | 207 nM |  | 3.5 nM | 
12 | CC(C)[C@H](NC(=O)C(F)(F)F)C(=O)N1C[C@H]2[C@@H]([C@H]1C(=O)N[C@H](C[C@@H]1CCNC1=O)C(=O)COc1ccc(F)cc1F)C2(C)C [Example 2, (1R,2S,5S)-N-{(2R)-4-(2,4-difluorophenoxy)-3-oxo-1-[(3S)-2-oxopyrrolidin-3-yl]butan-2-yl}-6,6-dimethyl-3-[N-(trifluoroacetyl)-L-valyl]-3-azabicyclo[3.1.0]hexane-2-carboxamide] | 74.4 nM |  | 172 nM | 
13 | CCC([C@H](NS(=O)(=O)C(F)(F)F)C(=O)N1C[C@H]2[C@@H]([C@H]1C(=O)N[C@@H](C[C@@H]1CCNC1=O)C(=O)COc1ccc(F)cc1F)C2(C)C)C(F)(F)F (stereo in doubt) [Example 63, (1R,2S,5S)-N-{(2S)-4-(2,4-difluorophenoxy)-3-oxo-1-[(3S)-2-oxopyrrolidin-3-yl]butan-2-yl}-6,6-dimethyl-3-[3′,3′,3′-trifluoro-N-(trifluoromethanesulfonyl)-L-isoleucyl]-3-azabicyclo[3.1.0]hexane-2-carboxamide] | 5550 nM | 54.2 nM |  | 
14 | COC(=O)N[C@H](C(=O)N1C[C@H]2[C@@H]([C@H]1C(=O)N[C@@H](C[C@@H]1CCNC1=O)C(=O)COc1cccc(Cl)c1)C2(C)C)C(C)C [Example 25, methyl {(2S)-1-[(1R,2S,5S)-2-({(2S)-4-(3-chlorophenoxy)-3-oxo-1-[(3S)-2-oxopyrrolidin-3-yl]butan-2-yl}carbamoyl)-6,6-dimethyl-3-azabicyclo[3.1.0]hexan-3-yl]-3-methyl-1-oxobutan-2-yl}carbamate] | 38.2 nM | 1.76 nM |  | 
15 | CC(C)(C)[C@H](NC(=O)C(F)(F)F)C(=O)N1C[C@H]2[C@@H]([C@H]1C(=O)N[C@@H](C[C@@H]1CCNC1=O)C(=O)COc1cccc(C(F)(F)F)c1)C2(C)C [Example 12, (1R,2S,5S)-6,6-dimethyl-3-[3-methyl-N-(trifluoroacetyl)-L-valyl]-N-{(2S)-3-oxo-1-[(3S)-2-oxopyrrolidin-3-yl]-4-[3-(trifluoromethyl)phenoxy]butan-2-yl}-3-azabicyclo[3.1.0]hexane-2-carboxamide] | 51.2 nM |  | 6.38 nM | 
16 | COCC(=O)[C@H](C[C@@H]1CCNC1=O)NC(=O)C1C[C@H](C(C)(C)C)CCN1C(=O)[C@@H](NS(=O)(=O)C(F)(F)F)C(C)C (single isomer, unassigned) [Example 77, (2R*,4S*)-4-tert-butyl-N-{(2S)-4-methoxy-3-oxo-1-[(3S)-2-oxopyrrolidin-3-yl]butan-2-yl}-1-[N-(trifluoromethanesulfonyl)-L-valyl]piperidine-2-carboxamide, DIAST-2] | > 100000 nM | > 10800 nM |  | 
17 | CC(C)[C@H](NC(=O)C(F)(F)F)C(=O)N1C[C@H]2[C@@H]([C@H]1C(=O)N[C@@H](C[C@@H]1CCNC1=O)C(=O)COc1nnc3c(F)cccn13)C2(C)C [Example 75, (1R,2S,5S)-N-{(2S)-4-[(8-fluoro[1,2,4]triazolo[4,3-a]pyridin-3-yl)oxy]-3-oxo-1-[(3S)-2-oxopyrrolidin-3-yl]butan-2-yl}-6,6-dimethyl-3-[N-(trifluoroacetyl)-L-valyl]-3-azabicyclo[3.1.0]hexane-2-carboxamide] | > 76800 nM | 2900 nM |  | 
18 | CC(C)(C)[C@H](NS(=O)(=O)C(F)(F)F)C(=O)N1C[C@H]2[C@@H]([C@H]1C(=O)N[C@@H](C[C@@H]1CCNC1=O)C(=O)COc1ccc(F)c(F)c1)C2(C)C [Example 114, (1R,2S,5S)-N-{(2S)-4-(3,4-difluorophenoxy)-3-oxo-1-[(3S)-2-oxopyrrolidin-3-yl]butan-2-yl}-6,6-dimethyl-3-[3-methyl-N-(trifluoromethanesulfonyl)-L-valyl]-3-azabicyclo[3.1.0]hexane-2-carboxamide] |  | 2.53 nM |  | 
